In US10093675B2, “6,8-disubstituted-9-(heterocyclyl)purines, compositions containing these derivatives and their use in cosmetic and medicinal applications” (USTAV EXPERIMENTALNI BOTANIKY AV CR, V.V.I., priority 2014, dated 2018):

Key:
[1] = tested on: detached leaves of Triticum aestivum cv. Hereward; experiment: Membrane lipid peroxidation (MDA, TBA method) in detached wheat leaves during dark senescence; format: in vivo; conditions: four days in the dark, Control 18.9 (±2.2)
In short: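 Leaf tips from 7-day wheat seedlings were kept with compound or kinetin for four days in the dark. 100 mg tissue was extracted in 80% methanol and heated 30 min at 95 °C with 0.5% TBA/0.1% TCA. MDA came from A532 minus A600, using 155 mM^−1cm^−1.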

[2] = tested on: excised wheat leaf tips (Triticum aestivum cv. Hereward); experiment: Senescence inhibition on winter wheat leaf segments (retention of chlorophyll); format: in vivo; conditions: 10^−4 mol/L; 96 hours in the dark; activity of kinetin set at 100%
In short: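 First-leaf tips from 7-day-old wheat seedlings stood with their bases in test solution for 96 h in the dark at 25° C. Chlorophyll was then extracted in hot 80% ethanol and read at 665 nm. Activity at each compound's best concentration is relative to 10^−4 M kinetin (100%), as means of five replicates.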

[3] = tested on: human diploid fibroblasts (HDF cells; HDF25, HDF45, HDF80); experiment: Inhibition of human cell aging: senescent cells by beta-galactosidase staining; format: cell-based; conditions: for SENESCENT CELLS (%) HDF25: human diploid fibroblasts passage 25, beta-galactosidase staining; for SENESCENT CELLS (%) HDF45: human diploid fibroblasts passage 45, beta-galactosidase staining; for SENESCENT CELLS (%) HDF80: human diploid fibroblasts passage 80, beta-galactosidase staining
In short: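 Cells of passages 25, 45 and 80 fixed 5 min at room temperature in 2% formaldehyde/0.2% glutaraldehyde in PBS, then incubated at 37° C with beta-galactosidase substrate. Senescent cells identified by blue staining.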

[4] = Radical scavenging activity determined by ORAC (Oxygen Radical Absorbance Capacity); format: biochemical; conditions: Mean ± SD (n = 3); net area under the curve relative to trolox, equimolar basis
Experimental: The ability of compounds to scavenge free radicals in vitro was determined by Oxygen Radical Absorbance Capacity (ORAC) method. Fluorescein (100 μL, […]) and 25 μL of compound solution were added into each working well in a 96-well microplate preincubated at 37° C. Thereafter, 25 μL of 250 mM AAPH was quickly added, microplate was shaken for 5 s and the fluorescence (Ex. 485 nm, Em. 510 nm) was read every 3 min over 90 min by using microplate reader Infinite 200 (TECAN, Switzerland). The net area under the curve was used to express antioxidant activity relative to trolox which was used as a standard.

## C/C(=C\CNc1ncnc2c1nc(Br)n2C1CCCCO1)CO (stereo not shown) [Compound 24, (E)-8-Bromo-6-(4-hydroxy-3-methylbut-2-en-1-ylamino)-9-(tetrahydropyran-2-yl)-9H-purine]
[1]
  MDA (nmol/g FW): 11.4 (±0.9) nmol/g FW
[2]
  Activity (%) (s.d.), retention of chlorophyll: 123 (±6) %
[3]
  SENESCENT CELLS (%) HDF25: 3%
  SENESCENT CELLS (%) HDF45: 5%
  SENESCENT CELLS (%) HDF80: 21%

## Fc1cccc(CNc2ncnc3c2nc(Br)n3C2CCCCO2)c1 (stereo not shown) [Compound 26]
[2]
  Activity (%) (s.d.), retention of chlorophyll: 117 (±5) %
[3]
  SENESCENT CELLS (%) HDF25: 2%
  SENESCENT CELLS (%) HDF45: 5%
  SENESCENT CELLS (%) HDF80: 19%

## Fc1ccc(CNc2ncnc3c2nc(Br)n3C2CCCCO2)cc1F (stereo not shown) [Compound 27]
[2]
  Activity (%) (s.d.), retention of chlorophyll: 124 (±4) %
[3]
  SENESCENT CELLS (%) HDF25: 2%
  SENESCENT CELLS (%) HDF45: 4%
  SENESCENT CELLS (%) HDF80: 21%

## C/C(=C\CNc1ncnc2c1nc(Cl)n2C1CCCO1)CO (stereo not shown) [Compound 64]
[2]
  Activity (%) (s.d.), retention of chlorophyll: 123 (±4) %
[3]
  SENESCENT CELLS (%) HDF25: 3%
  SENESCENT CELLS (%) HDF45: 4%
  SENESCENT CELLS (%) HDF80: 8%

## COc1cccc(CNc2ncnc3c2nc(Cl)n3C2CCCO2)c1 (stereo not shown) [Compound 69]
[2]
  Activity (%) (s.d.), retention of chlorophyll: 115 (±4) %
[3]
  SENESCENT CELLS (%) HDF25: 3%
  SENESCENT CELLS (%) HDF45: 4%
  SENESCENT CELLS (%) HDF80: 14%

## COc1nc2c(NCc3ccco3)ncnc2n1C1CCCCO1 (stereo not shown) [Compound 124, 6-Furfurylamino-8-methoxy-9-(tetrahydropyran-2-yl)-9H-purine]
[4]
  ORAC (compound/trolox ratio): 30.1 ± 3.1
[1]
  MDA (nmol/g FW): 10.3 (±0.7) nmol/g FW

## CSc1nc2c(NCc3ccco3)ncnc2n1C1CCCCO1 (stereo not shown) [Compound 145, 6-Furfurylamino-8-methylsulfanyl-9-(tetrahydropyran-2-yl)-9H-purine]
[4]
  ORAC (compound/trolox ratio): 1.3 ± 0.1
[1]
  MDA (nmol/g FW): 9.6 (±0.8) nmol/g FW
